Data reported in US20110172217A1, “RING-FUSED MORPHOLINE DERIVATIVE HAVING PI3K-INHIBITING ACTIVITY” (Shionogi & Co., Ltd., priority 2008, published 2011).

These compounds were tested against PI-3 kinase γ (Homo sapiens, UniProt P48736) (assay: PI3Kγ inhibitory activity, PI3-kinase HTRF assay (inhibition ratio)). Conditions: 0.5 h, compound at 50 μmol/L.
Assay type: biochemical
Procedure: For each compound synthesized in the above Examples, PI3Kγ inhibitory activity was measured.
The PI3Kγ inhibitory activity of a compound was evaluated using PI3-kinase HTRF™ assay (Millipore) according to the following procedure:
To each well of a testing plate, 5 μL of a compound solution containing 10% DMSO (200 μmol/L or 40 μmol/L as the concentration of the compound), 5 μL of a substrate solution (40 μmol/L phosphatidylinositol (4,5)-bisphosphate, 20 mmol/L MgCl2, 10 mmol/L DTT), and 5 μL of a enzyme solution (80 μg/mL PI-3 kinase γ, 10 mmol/L MgCl2, 5 mmol/L DTT) were added, and then allowed to stand for 10 minutes.
Then, 5 μL of a reaction solution (40 μmol/L ATP, 10 mmol/L MgCl2, 5 mmol/L DTT) was added thereto. After reacting for 30 minutes at room temperature, 5 μL of a solution containing EDTA and biotinylated phosphatidylinositol (3,4,5)-triphosphate were added to quench the reaction.
5 μL of a detection reagent containing a europium-labeled anti-GST antibody, the GST-tagged PH domain, and allophycocyanin-labeled streptavidin was added thereto. After 18 hours, HTRF (excitation wavelength: 330 nm, measured wavelengths: 620 nm and 665 nm) was measured.
HTRF ratio was defined as the value obtained by dividing the amount of fluorescence obtained at the measured wavelength 665 nm by the amount of fluorescence obtained at 620 nm. The HTRF ratio in the absence of a compound was defined as 100% activity and the HTRF ratio in the absence of PI-3 kinase γ was defined as 0% activity to calculate an inhibition ratio which was defined as the PI3Kγ inhibitory activity of a compound at 50 μmol/L or 10 μmol/L.

Chain of PI-3 kinase γ (P48736 whole entry): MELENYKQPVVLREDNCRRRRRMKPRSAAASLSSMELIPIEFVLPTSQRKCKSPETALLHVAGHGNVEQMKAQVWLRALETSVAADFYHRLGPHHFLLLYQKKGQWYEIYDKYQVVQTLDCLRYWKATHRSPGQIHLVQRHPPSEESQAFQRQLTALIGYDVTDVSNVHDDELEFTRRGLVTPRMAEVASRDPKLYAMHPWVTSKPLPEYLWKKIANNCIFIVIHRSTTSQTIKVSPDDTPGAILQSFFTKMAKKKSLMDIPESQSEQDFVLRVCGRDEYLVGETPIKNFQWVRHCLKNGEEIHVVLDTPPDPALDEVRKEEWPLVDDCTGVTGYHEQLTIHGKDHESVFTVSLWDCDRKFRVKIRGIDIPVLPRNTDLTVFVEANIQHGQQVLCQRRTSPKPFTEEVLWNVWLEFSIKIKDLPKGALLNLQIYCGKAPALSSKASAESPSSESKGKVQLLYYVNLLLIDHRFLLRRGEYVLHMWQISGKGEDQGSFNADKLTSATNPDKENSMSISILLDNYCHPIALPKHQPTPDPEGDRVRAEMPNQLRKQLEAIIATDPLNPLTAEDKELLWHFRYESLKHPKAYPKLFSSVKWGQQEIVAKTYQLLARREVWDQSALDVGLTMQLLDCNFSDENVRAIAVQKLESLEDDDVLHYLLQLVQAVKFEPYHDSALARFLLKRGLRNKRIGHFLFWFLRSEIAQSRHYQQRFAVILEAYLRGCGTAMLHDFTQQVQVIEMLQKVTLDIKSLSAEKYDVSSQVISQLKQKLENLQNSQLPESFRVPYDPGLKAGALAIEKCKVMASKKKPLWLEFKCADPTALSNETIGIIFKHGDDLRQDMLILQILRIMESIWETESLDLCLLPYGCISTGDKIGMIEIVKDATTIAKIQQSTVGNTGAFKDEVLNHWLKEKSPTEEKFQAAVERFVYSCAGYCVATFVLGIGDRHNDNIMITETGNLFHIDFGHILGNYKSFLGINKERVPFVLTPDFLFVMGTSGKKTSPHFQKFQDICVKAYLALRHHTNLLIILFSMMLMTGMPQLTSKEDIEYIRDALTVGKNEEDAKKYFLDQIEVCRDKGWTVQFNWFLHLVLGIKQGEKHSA

Row | inhibition at 50 µM [%] | SMILES
1 | 80 | O=C(O)c1ccc(NC(=O)c2ccc3c(n2)N(C(=O)Nc2ccccc2)CCO3)cc1 [Compound I-40]
2 | 93 | O=C(O)c1ccc(-c2ccc3c(n2)N(C(=O)Nc2ccccc2)CCO3)cc1 [Compound I-51]
3 | 73 | NC(=O)c1ccc(-c2ccc3c(n2)N(C(=O)Nc2ccccc2)CCO3)cc1 [Compound I-69]
4 | 71 | CNC(=O)c1ccc(-c2ccc3c(n2)N(C(=O)Nc2ccccc2)CCO3)cc1 [Compound I-70]
5 | 75 | O=C(Nc1ccccc1)N1CCOc2ccc(Cc3ccccc3)nc21 [Compound I-87]
6 | 91 | CC(C)CCc1ccc2c(n1)N(C(=O)Nc1ccccc1)CCO2 [Compound I-88]
7 | ≥ 95 | CCOC(=O)CCc1ccc2c(n1)N(C(=O)Nc1ccccc1)CCO2 [Compound I-92]
8 | ≥ 95 | O=C(O)CCc1ccc2c(n1)N(C(=O)Nc1ccccc1)CCO2 [Compound I-94]
9 | 89 | O=C(Nc1ccccc1)N1CCOc2ccc(-c3ccc(CO)cc3)nc21 [Compound I-97]
10 | 73 | COc1ccc(-c2ccc3c(n2)N(C(=O)Nc2ccccc2)CCO3)cc1 [Compound I-98]
11 | ≥ 95 | COc1ccc(-c2ccc3c(n2)N(C(=O)Nc2ccccc2)CCO3)cc1OC [Compound I-99]
12 | ≥ 95 | O=C(Nc1ccccc1)N1CCOc2ccc(-c3ccoc3)nc21 [Compound I-101]
13 | 94 | O=C(Nc1ccccc1)N1CCOc2ccc(-c3cccnc3)nc21 [Compound I-102]
14 | 94 | COC(=O)c1cccc(-c2ccc3c(n2)N(C(=O)Nc2ccccc2)CCO3)c1 [Compound I-103]
15 | ≥ 95 | O=C(O)c1cccc(-c2ccc3c(n2)N(C(=O)Nc2ccccc2)CCO3)c1 [Compound I-104]
16 | ≥ 95 | O=C(Nc1ccccc1)N1CCOc2ccc(-c3ccncc3)nc21 [Compound I-107]
17 | 87 | O=C(O)c1ccc(-c2cnc3c(c2)OCCN3C(=O)Nc2ccccc2)cc1 [Compound I-111]
18 | ≥ 95 | NCCOc1ccc(C(=O)O)cc1NC(=O)c1ccc2c(n1)N(C(=O)Nc1ccccc1)CCO2 [Compound I-118]
19 | 87 | CCOC(=O)CC(=O)Nc1ccc2c(n1)N(C(=O)Nc1ccccc1)CCO2 [Compound I-122]
20 | ≥ 95 | O=C(O)CC(=O)Nc1ccc2c(n1)N(C(=O)Nc1ccccc1)CCO2 [Compound I-123]
21 | 76 | O=C(O)c1cccc(C(=O)Nc2ccc3c(n2)N(C(=O)Nc2ccccc2)CCO3)c1 [Compound I-124]
22 | ≥ 95 | O=C(O)c1ccc(C(=O)Nc2ccc3c(n2)N(C(=O)Nc2ccccc2)CCO3)cc1 [Compound I-125]

Row | inhibition at 50 µM [%] | SMILES
23 | ≥ 95 | O=C(O)c1cccc(NC(=O)c2ccc3c(n2)N(C(=O)Nc2ccccc2)CCO3)c1 [Compound I-126]
24 | ≥ 95 | NCCOc1ccccc1NC(=O)c1ccc2c(n1)N(C(=O)Nc1ccccc1)CCO2 [Compound I-130]
25 | ≥ 95 | O=C(O)c1ccccc1Nc1cnc2c(c1)OCCN2C(=O)Nc1ccccc1 [Compound I-137]
26 | 82 | COC(=O)c1ccccc1Nc1ccc2c(n1)N(C(=O)Nc1ccccc1)CCO2 [Compound I-141]
27 | 78 | CC(C)(C)OC(=O)c1cccc(Nc2ccc3c(n2)N(C(=O)Nc2ccccc2)CCO3)c1 [Compound I-142]
28 | ≥ 95 | CC(C)(C)OC(=O)c1ccc(Nc2ccc3c(n2)N(C(=O)Nc2ccccc2)CCO3)cc1 [Compound I-143]
29 | 81 | O=C(Nc1ccccc1)N1CCOc2ccc(Nc3ccccc3)nc21 [Compound I-144]
30 | ≥ 95 | O=C(O)c1cccc(Nc2ccc3c(n2)N(C(=O)Nc2ccccc2)CCO3)c1 [Compound I-147]
31 | ≥ 95 | O=C(O)Cc1cccc(-c2ccc3c(n2)N(C(=O)Nc2ccccc2)CCO3)c1 [Compound I-152]
32 | 79 | CC(=O)Nc1ccc2c(n1)N(C(=O)Nc1ccccc1)CCO2 [Compound I-174]
33 | 79 | COCOc1ccc(C(=O)OC)cc1Nc1ccc2c(n1)N(C(=O)Nc1ccccc1)CCO2 [Compound I-179]
34 | ≥ 95 | O=C(Nc1ccccc1)N1CCOc2ccc(Nc3ccccn3)nc21 [Compound I-180]
35 | ≥ 95 | O=C(Nc1ccccc1)N1CCOc2ccc(Nc3cccnc3)nc21 [Compound I-181]
36 | ≥ 95 | O=C(Nc1ccccc1)N1CCOc2ccc(Nc3ccncc3)nc21 [Compound I-182]
37 | 86 | O=C(O)c1ccc(Nc2ccc3c(n2)N(C(=O)Nc2ccccc2)CCO3)nc1 [Compound I-183]
38 | ≥ 95 | O=C(O)c1cncc(-c2ccc3c(n2)N(C(=O)Nc2ccccc2)CCO3)c1 [Compound I-184]
39 | 76 | Nc1ccc(-c2ccc3c(n2)N(C(=O)Nc2ccccc2)CCO3)cn1 [Compound I-185]
40 | ≥ 95 | O=C(Nc1ccccc1)N1CCOc2ccc(-c3ccn[nH]3)nc21 [Compound I-187]
41 | ≥ 95 | Cc1n[nH]cc1-c1ccc2c(n1)N(C(=O)Nc1ccccc1)CCO2 [Compound I-188]
42 | ≥ 95 | COc1ccc(NC(=O)N2CCOc3ccc(Nc4ccc(C(=O)O)cc4)nc32)cc1OC [Compound I-210]
43 | ≥ 95 | COc1cccc(NC(=O)N2CCOc3ccc(Nc4ccc(C(=O)O)cc4)nc32)c1 [Compound I-211]

Continued, compound first:

Row | SMILES | inhibition at 50 µM [%]
44 | O=C(Nc1ccccc1)N1CCOc2cccnc21 [Compound I-2] | 89
45 | C=CCC1(C)SC(N2CCOc3cccnc32)=NC1=O (centres unmarked) [Compound I-3] | 80
46 | CC1(Cc2ccccc2)SC(N2CCOc3cccnc32)=NC1=O (centres unmarked) [Compound I-4] | 84
47 | S=C(Nc1cccnc1)N1CCOc2cccnc21 [Compound I-5] | 90
48 | CC1(C/C=C/c2ccccc2)SC(N2CCOc3cccnc32)=NC1=O (centres unmarked) [Compound I-6] | 81
49 | C#CCC1(C)SC(N2CCOc3cccnc32)=NC1=O (centres unmarked) [Compound I-7] | 75
50 | O=C(NC1CCCCC1)N1CCOc2cccnc21 [Compound I-17] | 88
51 | CC(NC(=O)c1ccc2c(n1)N(C(=O)Nc1ccccc1)CCO2)C(=O)O (centres unmarked) [Compound I-38] | 76
52 | O=C(Nc1ccccc1)N1CCOc2ccc(/C=C/c3ccccc3)nc21 [Compound I-60] | 74
53 | CN1CCOc2cc(-c3ccc4c(n3)N(C(=O)Nc3ccccc3)CCO4)ccc21 [Compound I-77] | 82
54 | O=C(Nc1ccccc1)N1CCOc2ccc(-c3nccs3)nc21 [Compound I-83] | 92
55 | O=C(Nc1ccccc1)N1CCOc2ccc(-c3ncco3)nc21 [Compound I-84] | 72
56 | O=C(Nc1ccccc1)N1CCOc2ccc(C3CCCCC3)nc21 [Compound I-86] | 82
57 | CCOC(=O)CCCc1ccc2c(n1)N(C(=O)Nc1ccccc1)CCO2 [Compound I-89] | ≥ 95
58 | CCCc1ccc2c(n1)N(C(=O)Nc1ccccc1)CCO2 [Compound I-90] | 72
59 | O=C(O)CCCc1ccc2c(n1)N(C(=O)Nc1ccccc1)CCO2 [Compound I-95] | ≥ 95

Row | SMILES | inhibition at 50 µM [%]
60 | Cc1noc(C)c1-c1ccc2c(n1)N(C(=O)Nc1ccccc1)CCO2 [Compound I-100] | ≥ 95
61 | O=C(Nc1ccccc1)N1CCOc2ccc(-c3cncnc3)nc21 [Compound I-106] | ≥ 95
62 | Nc1ccc2c(n1)N(C(=O)Nc1ccccc1)CCO2 [Compound I-108] | 88
63 | O=C(Nc1ccccc1)N1CCOc2cc(NCc3ccccc3)cnc21 [Compound I-131] | ≥ 95
64 | O=C(Nc1ccccc1)N1CCOc2cc(Nc3ccccc3)cnc21 [Compound I-132] | 83
65 | Nc1cnc2c(c1)OCCN2C(=O)Nc1ccccc1 [Compound I-148] | 94
66 | CC(C)(C)OC(=O)CC(=O)Nc1cnc2c(c1)OCCN2C(=O)Nc1ccccc1 [Compound I-160] | 75
67 | O=C(O)CC(=O)Nc1cnc2c(c1)OCCN2C(=O)Nc1ccccc1 [Compound I-161] | 88
68 | CC(=O)Nc1cnc2c(c1)OCCN2C(=O)Nc1ccccc1 [Compound I-173] | ≥ 95
69 | Cc1n[nH]c(C)c1-c1ccc2c(n1)N(C(=O)Nc1ccccc1)CCO2 [Compound I-189] | 83
70 | Cn1cc(-c2ccc3c(n2)N(C(=O)Nc2ccccc2)CCO3)cn1 [Compound I-190] | ≥ 95
71 | CCOC(=O)N1CCC(NC(=O)N2CCOc3ccc(-c4ccc(C(=O)O)cc4)nc32)CC1 [Compound I-203] | ≥ 95
72 | O=C(O)c1ccc(-c2ccc3c(n2)N(C(=O)NCCO)CCO3)cc1 [Compound I-205] | ≥ 95
73 | O=C(Nc1ccccc1)N1CCOc2ccc(N3CCOCC3)nc21 [Compound I-207] | 81
74 | O=C(O)c1ccc(-c2ccc3c(n2)N(C(=O)Nc2ccncc2)CCO3)cc1 [Compound I-209] | 90
